Activity calls are given as the source filed them.

The subject of data set [1] is A-375. Put plainly: Antiproliferative activity against human A375 cells after 72 hrs by CCK-8 assay. To be noted: A-375, 72 h. Type of data set: functional, cell-based. On the technique in general: Formazan colour is commonly taken as a measure of viable cells.
In data set [2] the test system is HCT-116. In words: Antiproliferative activity against human HCT116 cells after 72 hrs by CCK-8 assay. The conditions noted are these: HCT-116, 72 h. Type of data set: functional, cell-based.
Data set [3] relates to SH-SY5Y. In words: Antiproliferative activity against human SH-SY5Y cells after 72 hrs by CCK-8 assay. Type of data set: functional, cell-based.
The nature of data set [4]: Clearance in human liver microsomes at 1.11 uM preincubated for 10 mins followed by NADPH addition by LC-MS/MS analysis. Type of data set: ADME, microsome. The conditions noted are these: read-out: CLH.
Data set [5] concerns L02. In words: Antiproliferative activity against human L02 cells after 72 hrs by CCK-8 assay. Type of data set: cell-based. To be noted: L02, 72 h.
Data set [6] has as its system PC-12. In words: Antiproliferative activity against rat PC12 cells after 72 hrs by CCK-8 assay. To be noted: PC-12, 72 h. Type of data set: functional, cell-based.
Data set [7] can be described thus: Half life in human liver microsomes at 1.11 uM preincubated for 10 mins followed by NADPH addition by LC-MS/MS analysis. Type of data set: ADME, microsome. On the technique in general: Liver microsomes are vesicles of endoplasmic reticulum, rich in cytochrome P450 enzymes.
In data set [8] the test system is A549. Put plainly: Antiproliferative activity against human A549 cells after 72 hrs by CCK-8 assay. Type of data set: functional, cell-based. The conditions noted are these: A549, 72 h.
The nature of data set [9]: Stability of the compound in air at 60 degC after 24 hrs. Type of data set: physicochemical.
Data set [10] deals with PC-12. In words: Cell cycle arrest in rat PC12 cells assessed as accumulation at G2 phase at 3 uM after 24 hrs by propidium iodide/RNase A staining-based flow cytometric analysis (reference value: 11.63%). Type of data set: functional. On the technique in general: A flow cytometer gives signals particle by particle.
For data set [11], the system named is PC-12. In words: Cell cycle arrest in rat PC12 cells assessed as accumulation at G1 phase at 5 uM after 24 hrs by propidium iodide/RNase A staining-based flow cytometric analysis (reference value: 58.07%). Type of data set: functional.
Data set [12] relates to PC-12. In words: Induction of apoptosis in rat PC12 cells assessed as increase in cleaved caspase9 expression level after 72 hrs by Western blot analysis. Type of data set: functional, cell-based.
Data set [13] deals with PC-12. Put plainly: Cell cycle arrest in rat PC12 cells assessed as accumulation at G2 phase at 1 uM after 24 hrs by propidium iodide/RNase A staining-based flow cytometric analysis (reference value: 11.63%). Type of data set: functional.
The subject of data set [14] is PC-12. Put plainly: Induction of apoptosis in rat PC12 cells assessed as increase in Bad protein expression up to 5 uM after 72 hrs by Western blot analysis. Type of data set: functional, cell-based.
In data set [15] the test system is PC-12. Put plainly: Cell cycle arrest in rat PC12 cells assessed as accumulation at S phase at 1 uM after 24 hrs by propidium iodide/RNase A staining-based flow cytometric analysis (reference value: 30.30%). Type of data set: functional.
Data set [16] concerns PC-12. In words: Cell cycle arrest in rat PC12 cells assessed as accumulation at G1 phase at 3 uM after 24 hrs by propidium iodide/RNase A staining-based flow cytometric analysis (reference value: 58.07%). Type of data set: functional.
Data set [17] deals with PC-12. Put plainly: Induction of apoptosis in rat PC12 cells assessed as increase in cleaved caspase3 expression level after 72 hrs by Western blot analysis. Type of data set: functional, cell-based.
The subject of data set [18] is PC-12. Put plainly: Cell cycle arrest in rat PC12 cells assessed as accumulation at S phase at 5 uM after 24 hrs by propidium iodide/RNase A staining-based flow cytometric analysis (reference value: 30.30%). Type of data set: functional.
In data set [19] the test system is PC-12. Put plainly: Induction of apoptosis in rat PC12 cells assessed as apoptotic cells up to 3.13 uM after 24 hrs by Annexin V-FITC/propidium iodide staining-based flow cytometric analysis (reference value: 6.56%). Type of data set: functional.
The subject of data set [20] is PC-12. In words: Cell cycle arrest in rat PC12 cells assessed as accumulation at G1 phase at 1 uM after 24 hrs by propidium iodide/RNase A staining-based flow cytometric analysis (reference value: 58.07%). Type of data set: functional.
Data set [21] relates to PC-12. In words: Induction of apoptosis in rat PC12 cells assessed as increase in Bax protein expression up to 5 uM after 72 hrs by Western blot analysis. Type of data set: functional, cell-based.
Data set [22] relates to PC-12. Put plainly: Induction of apoptosis in rat PC12 cells assessed as decrease in Bcl-xL level up to 5 uM after 72 hrs by Western blot analysis. Type of data set: functional, cell-based.
Data set [23] relates to PC-12. In words: Cell cycle arrest in rat PC12 cells assessed as accumulation at G1 phase after 24 hrs by propidium iodide/RNase A staining-based flow cytometric analysis. Type of data set: functional.
In data set [24] the test system is PC-12. In words: Induction of apoptosis in rat PC12 cells assessed as nuclear fragmentation up to 3.13 uM after 24 hrs by Hoechst 33258 staining-based fluorescence microscopic method. Type of data set: functional, cell-based.
The subject of data set [25] is PC-12. Put plainly: Cell cycle arrest in rat PC12 cells assessed as accumulation at G2 phase at 5 uM after 24 hrs by propidium iodide/RNase A staining-based flow cytometric analysis (reference value: 11.63%). Type of data set: functional.
In data set [26] the test system is PC-12. Put plainly: Induction of apoptosis in rat PC12 cells assessed as nuclear condensation up to 3.13 uM after 24 hrs by Hoechst 33258 staining-based fluorescence microscopic method. Type of data set: functional, cell-based.
The test system of data set [27] is PC-12. Put plainly: Cell cycle arrest in rat PC12 cells assessed as accumulation at S phase at 3 uM after 24 hrs by propidium iodide/RNase A staining-based flow cytometric analysis (reference value: 30.30%). Type of data set: functional.

For orientation: IC50 means the point on the concentration scale where inhibition reaches its midpoint. A high value points to a need for much substance. As a reminder, the half-life is the time needed for the level to fall by half in the phase considered. Read a high half-life as slow decline. `C[C@@H]1CC[C@H]2[C@@H](O)[C@H](OC(=O)CCC(=O)O[C@@H]3O[C@@H]4O[C@@]5(C)CC[C@H]6[C@H](C)CC[C@@H]([C@H]3O)[C@@]46OO5)O[C@@H]3O[C@@]4(C)CC[C@@H]1[C@]32OO4`: the IC50 in data set [1] was 33.5 µM; in data set [2] it was 36.3 µM; in data set [3], > 50 µM; in [5], > 50 µM; in [6], > 50 µM; in data set [8] it was 45.7 µM. Besides, in data set [4], the microsomal CLint at 1.11 µM worked out at 124 µL/min/mg. In data set [7], this molecule displayed a half-life at 1.11 µM of 8 min. Also, the Stability entry in data set [9] is recorded as “Stable”.
With `C[C@]12CC[C@H]3[C@@H](CCC4=CC(=O)CC[C@@]43C)[C@@H]1CC[C@@H]2O` [TESTOSTERONE], in data set [7], the half-life at 1.11 µM was 10.3 min.
Take `C[C@@H]1CC[C@@H]2[C@]34OO[C@](C)(CC[C@@H]13)O[C@H]4O[C@]2(C)COP(=O)(OC[C@@]1(C)O[C@@H]2O[C@@]3(C)CC[C@H]4[C@H](C)CC[C@@H]1[C@@]24OO3)Oc1ccccc1`: the IC50 was 5.96 µM in data set [1]; 6.61 µM in [2]; 3.48 µM in [3]; 10.3 µM in data set [5]; 1.56 µM in data set [6]; 6.37 µM in [8]. Moreover, the Activity was 6.81% in [10]; 86.06% in data set [11]; “Dose-dependent effect” in data set [12]; 8.77% in [13]; 14.7% in data set [15]; 79.4% in [16]. The Activity entry was “Dose-dependent effect” in [17]; 10.33% in data set [18]; 6.56 - 31.04% in [19]; 76.54% in data set [20]; “Dose-dependent effect” in data set [23]; 3.61% in [25]. Moreover, the Activity in data set [27] was 13.79%. The microsomal CLint at 1.11 µM in data set [4] came to 54 µL/min/mg. Further, the result in data set [14], in data set [21], in data set [22], in data set [24] and in data set [26] was Active. Besides, the half-life at 1.11 µM in data set [7] was found to be 18.3 min. Besides, in data set [9], the Stability entry was “Stable”.
For the molecule `C[C@@H]1CC[C@@H]2[C@]34OO[C@](C)(CC[C@@H]13)O[C@H]4O[C@]2(C)C(=O)O`, the IC50 was > 50 µM in [1]; > 50 µM in data set [2]; > 50 µM in data set [3]; > 50 µM in data set [5]; 37.3 µM in [6]; > 50 µM in [8].
As to `C[C@@H]1CC[C@@H]2[C@]34OO[C@](C)(CC[C@@H]13)O[C@H]4O[C@]2(C)C(=O)OCCCCOC(=O)[C@@]1(C)O[C@@H]2O[C@@]3(C)CC[C@H]4[C@H](C)CC[C@@H]1[C@@]24OO3`, the IC50 in data set [1] was found to be 13.2 µM; in data set [2], 7.65 µM; in [3], 6.26 µM; in [5], 16.2 µM; in data set [6], 8.52 µM; in [8], 6.56 µM.
On to `C[C@@H]1CC[C@H]2[C@@H](C)C(=O)O[C@@H]3O[C@@]4(C)CC[C@@H]1[C@]32OO4` [ARTEMISININ], for which the IC50 in [1], in [2], in data set [3], in data set [5], in [6] and in data set [8] was > 50 µM in each case.
In the case of `C[C@@H]1CC[C@@H]2[C@]34OO[C@](C)(CC[C@@H]13)O[C@H]4O[C@]2(C)C(=O)OCCCCCCCCCCOC(=O)[C@@]1(C)O[C@@H]2O[C@@]3(C)CC[C@H]4[C@H](C)CC[C@@H]1[C@@]24OO3`, the IC50 in [1] is 20.8 µM; in data set [2] it was > 50 µM; in [3] it was > 50 µM; in data set [5], > 50 µM; in data set [6] it was > 50 µM; in data set [8], 29 µM.
Regarding `C[C@@H]1CC[C@@H]2[C@]34OO[C@](C)(CC[C@@H]13)O[C@H]4O[C@]2(C)/C=C\COP(=O)(OC/C=C/[C@@]1(C)O[C@@H]2O[C@@]3(C)CC[C@H]4[C@H](C)CC[C@@H]1[C@@]24OO3)Oc1ccccc1`, the IC50 in data set [1] is 8.14 µM; in [2] it was 9.1 µM; in data set [3] it was 5.79 µM; in data set [5] it was 31.6 µM; in [6], 7.22 µM; in data set [8] it was 10.7 µM.
Consider `CCOP(=O)(OC/C=C\[C@@]1(C)O[C@@H]2O[C@@]3(C)CC[C@H]4[C@H](C)CC[C@@H]1[C@@]24OO3)OC/C=C/[C@@]1(C)O[C@@H]2O[C@@]3(C)CC[C@H]4[C@H](C)CC[C@@H]1[C@@]24OO3`, for which the IC50 in [1] turned out to be 12.4 µM; in [2], 10.7 µM; in data set [3], 6.38 µM; in data set [5], 18.7 µM; in [6], 5.26 µM; in data set [8], 11.4 µM.
On to `C[C@@H]1CC[C@@H]2[C@]34OO[C@](C)(CC[C@@H]13)O[C@H]4O[C@]2(C)CO`, for which the half-inhibitory concentration (IC50) in data set [1], in [2], in data set [3], in [5], in data set [6] and in data set [8] was > 50 µM throughout.
Regarding `C[C@H]1[C@@H](O)O[C@@H]2O[C@@]3(C)CC[C@H]4[C@H](C)CC[C@@H]1[C@@]24OO3` [ARTENIMOL], the IC50 in data set [1] is > 50 µM; in [2], 32.8 µM; in data set [3], > 50 µM; in data set [5], > 50 µM; in data set [6] it was > 50 µM; in [8], 29.9 µM.
For the molecule `C[C@@H]1CC[C@@H]2[C@]34OO[C@](C)(CC[C@@H]13)O[C@H]4O[C@]2(C)C(=O)OCCCCCCCCCOC(=O)[C@@]1(C)O[C@@H]2O[C@@]3(C)CC[C@H]4[C@H](C)CC[C@@H]1[C@@]24OO3`, the IC50 was found to be 8.13 µM in [1]; 7.41 µM in [2]; 5.12 µM in data set [3]; 33.7 µM in [5]; 4.46 µM in data set [6]; 12.2 µM in data set [8].

The values above are taken from ChEMBL document CHEMBL4229365, “Synthesis of novel ring-contracted artemisinin dimers with potent anticancer activities” (Eur J Med Chem, 2018).
